Laboratory results reported in ChEMBL document CHEMBL1123527 (J Med Chem, 1986).
Converted amounts (≈) assume the structure as drawn.

Key:
P388 [1] = test: Compound at a optimum dose level of 2 mg/kg was evaluated in vivo against Murine P388/MTX resistant cells (1 X 10E6 ip implant); type: functional, Mus musculus; conditions: route intraperitoneal
P388 [2] = test: (§1) Compound at a optimum dose level of 0.5 mg/kg was evaluated in vivo against Murine P388/0 […] cells (1 X 10E6 ip implant); type: organism-based; set-up: dose 0.5 mg/kg, route intraperitoneal; conditions: mouse
L1210 [3] = test: Compound was evaluated for rate of anabolism to polyglutamate accumulation in L1210 cells; type: functional, Mus musculus
L1210 [4] = test: Compound was evaluated for the efflux (K) mediated transport with respect to L1210 cells; type: functional, cell-based; conditions: Mus musculus
P388 [5] = test: as §1; type: functional, Mus musculus; conditions: route intraperitoneal
L1210 [6] = test: cells; conditions: Mus musculus
L1210 [7] = test: Compound was evaluated for the influx (Km) mediated transport with respect to L1210 cells; type: functional, cell-based; conditions: Mus musculus
Dihydrofolate reductase = molecular target: T1, Dihydrofolate reductase (Mus musculus, UniProt P00375); test: Compound was evaluated for inhibitory effect on dihydrofolate reductase (DHFR) from L1210 cells at Inhibitory constant (n=3); type: cell-based
T1 sequence (P00375 whole entry): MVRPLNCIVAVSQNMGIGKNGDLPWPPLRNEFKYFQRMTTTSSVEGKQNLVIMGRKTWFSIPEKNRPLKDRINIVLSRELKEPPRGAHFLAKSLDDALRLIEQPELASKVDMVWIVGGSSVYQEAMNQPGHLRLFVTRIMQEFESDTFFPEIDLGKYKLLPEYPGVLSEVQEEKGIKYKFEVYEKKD

Enterococcus faecium [8] = test: Compound was evaluated for inhibitory effect on growth of Streptococcus faecium MTX resistant; type: functional, organism-based
Thymidylate synthase [9] = molecular target: T2, Thymidylate synthase (Lactobacillus casei, UniProt P00469); test: (§2) Compound was evaluated for inhibitory effect on the thymidylate synthase (TS) of Lactobacillus casei; set-up: species or system Lacticaseibacillus casei
T2 sequence (P00469 whole entry): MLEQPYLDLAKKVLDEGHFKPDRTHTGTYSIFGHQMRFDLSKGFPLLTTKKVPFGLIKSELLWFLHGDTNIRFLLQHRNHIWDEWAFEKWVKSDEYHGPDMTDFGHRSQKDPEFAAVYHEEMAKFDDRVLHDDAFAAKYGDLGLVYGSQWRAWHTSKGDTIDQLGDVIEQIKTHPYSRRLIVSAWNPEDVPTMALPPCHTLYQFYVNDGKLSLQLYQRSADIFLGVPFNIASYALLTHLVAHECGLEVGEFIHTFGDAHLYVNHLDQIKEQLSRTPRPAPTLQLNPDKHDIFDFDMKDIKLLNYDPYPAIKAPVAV

Lacticaseibacillus casei [10] = test: Compound was evaluated for inhibitory effect on growth of Lactobacillus casei MTX resistant; type: functional, organism-based
Lacticaseibacillus casei [11] = test: Compound was evaluated for inhibitory effect on growth of Lactobacillus casei ATCC 7469; type: functional, organism-based
Enterococcus faecium [12] = test: Compound was evaluated for inhibitory effect on growth of Streptococcus faecium ATCC 8043; type: functional, organism-based
P388 [13] = test: Compound at a optimum dose level of 0.5 mg/kg was evaluated in vivo against Murine P388/MTX resistant cells (1 X 10E6 ip implant); type: functional, Mus musculus; conditions: route intraperitoneal
Thymidylate synthase [14] = molecular target: T2, Thymidylate synthase; test: as §2; type: functional, Lacticaseibacillus casei
L1210 [15] = test: Compound was evaluated for the influx (Km) mediated transport with respect to L1210 cells.; type: functional, cell-based; conditions: Mus musculus
[16] = Lacticaseibacillus casei, read-out: IC50

Row | Structure (SMILES) | Survival time (P388 [1]) [days] | T/C (P388 [2]) [%] | Rate (L1210 [3]) | K (L1210 [4]) [min⁻¹] | Survival time (P388 [5]) [days] | IC50 (L1210 [6]) [nM] | Km (L1210 [7]) [µM] | Ki (Dihydrofolate reductase) [nM] | IC50 (Enterococcus faecium [8]) [ng/mL] | IC50 (Enterococcus faecium [12]) [ng/mL] | other results
1 | Cc1c(CN(C)c2ccc(C(=O)NC(CCC(=O)O)C(=O)O)cc2)cnc2nc(N)nc(N)c12 (stereo not given) | 20.8 | 182 | 42.9 pM min-1 (g dry weight)-1 | 0.31 | 19.7 | 0.24 | 3.2 | 0.00212 |  |  | 
2 | Cc1c(CN(C)c2ccc(C(=O)NC(CCC(=O)O)C(=O)O)cc2)cnc2nc(N)nc(O)c12 (stereo not given) |  |  |  |  |  |  |  |  | > 10000 | 30 (≈ 0.064 µM) | IC50 (Thymidylate synthase [9]): 2.77 nM; IC50 (Lacticaseibacillus casei [10]; [16]): > 10000 ng/mL; IC50 (Lacticaseibacillus casei [11]): 4.6 ng/mL (≈ 0.00982 µM)
3 | Cc1c(CNc2ccc(C(=O)NC(CCC(=O)O)C(=O)O)cc2)cnc2nc(N)nc(N)c12 (stereo not given) |  | 151 | 98.3 pM min-1 (g dry weight)-1 | 0.26 | 16.4 | 0.13 | 1.2 | 0.00293 |  |  | Survival time (P388 [13]): 20.8 days
4 | CCOC(=O)CCC(NC(=O)c1ccc(NCc2cnc3nc(N)nc(N)c3c2)cc1)C(=O)OCC (stereo not given) | 20.8 | 151 |  |  | 16.2 |  |  |  |  |  | 
5 | CCN(Cc1cnc2nc(N)nc(N)c2c1C)c1ccc(C(=O)NC(CCC(=O)O)C(=O)O)cc1 (stereo not given) |  |  |  | 0.29 |  | 0.26 | 3.3 | 0.00264 |  |  | 
6 | CN(Cc1cnc2nc(N)nc(N)c2n1)c1ccc(C(=O)N[C@@H](CCC(=O)O)C(=O)O)cc1 [METHOTREXATE] | 20.3 | 182 |  | 0.33 | 19.7 |  | 3.3 |  | 3000 (≈ 6.6 µM) | 0.26 (≈ 0.000572 µM) | IC50 (Lacticaseibacillus casei [10]): > 500000 ng/mL
7 | Nc1nc(N)c2cc(CNc3ccc(C(=O)NC(CCC(=O)O)C(=O)O)cc3)cnc2n1 (stereo not given) | 21.8 | 146 | 84.2 pM min-1 (g dry weight)-1 | 0.3 | 15.8 | 0.63 | 1.1 | 0.00365 |  |  | 
8 | Nc1nc(N)c2nc(CNc3ccc(C(=O)N[C@@H](CCC(=O)O)C(=O)O)cc3)cnc2n1 [AMINOPTERIN] |  |  | 165 pM min-1 (g dry weight)-1 | 0.31 |  |  | 1.2 | 0.00355 |  |  | 
9 | Nc1nc(O)c2cc(CNc3ccc(C(=O)NC(CCC(=O)O)C(=O)O)cc3)cnc2n1 (stereo not given) |  |  |  |  |  |  |  |  | 49 (≈ 0.111 µM) | 0.09 (≈ 0.000204 µM) | IC50 (Lacticaseibacillus casei [10]; [16]): 3500 ng/mL (≈ 7.95 µM); IC50 (Lacticaseibacillus casei [11]): 0.054 ng/mL (≈ 0.000123 µM); IC50 (Thymidylate synthase [14]): 1700 nM
10 | CN(Cc1cnc2nc(N)nc(N)c2c1)c1ccc(C(=O)NC(CCC(=O)O)C(=O)O)cc1 (stereo not given) | 20.3 | 166 | 48.8 pM min-1 (g dry weight)-1 | 0.28 | 18 | 2.85 |  | 0.00526 |  |  | Km (L1210 [15]): 4 µM
11 | Cc1c(CNc2ccc(C(=O)NC(CCC(=O)O)C(=O)O)cc2)cnc2nc(N)nc(O)c12 (stereo not given) |  |  |  |  |  |  |  |  | > 10000 | 380 (≈ 0.836 µM) | IC50 (Lacticaseibacillus casei [10]; [16]): > 10000 ng/mL; IC50 (Lacticaseibacillus casei [11]): 0.57 ng/mL (≈ 0.00125 µM)
